From ChEMBL document CHEMBL1158275, “Isolation of two new antiinflammatory biflavanoids from Sarcophyte piriei” (J Nat Prod, 1996)

Columns and labels:
[1] = Inhibition of prostaglandin synthesis in bovine seminal vesicle microsomes using [14C]arachidonic acid; type: functional, Bos taurus, Microsome
Neutrophil = assay: Inhibition of PAF-induced exocytosis in neutrophil by spectrophotometer; type: functional, cell-based

CC(=O)Oc1ccccc1C(=O)O [ASPIRIN]
IC50 [1]: 200 µg/mL

O=C1C[C@H](c2ccc(O)c(O)c2)Oc2c1c(O)cc1c2[C@@H]2C[C@@](c3ccc(O)c(O)c3)(Oc3cc(O[C@@H]4O[C@H](CO)[C@@H](O)[C@H](O)[C@H]4O)cc(O)c32)O1 [DIINSININOL]
IC50 (Neutrophil): 49 µM | IC50 ([1]; read-out: IC50): 9.2 µM

O=C1C[C@H](c2ccc(O)cc2)Oc2c1c(O)cc1c2[C@@H]2C[C@@](c3ccc(O)c(O)c3)(Oc3cc(O[C@@H]4O[C@H](CO)[C@@H](O)[C@H](O)[C@H]4O)cc(O)c32)O1 [DIINSININ]
IC50 (Neutrophil): 39 µM | IC50 ([1]; read-out: IC50): 13.1 µM

C[C@@H]1C(=O)O[C@H]2[C@H](O)[C@@]34[C@H]5C[C@@H](C(C)(C)C)[C@]36[C@@H](OC(=O)[C@@H]6O)O[C@@]4(C(=O)O5)[C@@]12O [GINKOLIDE B]
IC50 (Neutrophil): 80 µM

COc1ccc2c(c1)c(CC(=O)O)c(C)n2C(=O)c1ccc(Cl)cc1 [INDOMETHACIN]
IC50 ([1]; read-out: IC50): 0.56 µM
